Columns and labels:
[1] = test system: VCAM-1; experiment: Collagen antibody-induced arthritis, hind limb immunohistochemistry for VCAM-1; assay type: in vivo, mouse; conditions: CAIA mice; Day 14 hind limbs
Method: Collagen antibody-induced arthritis. Arthritis was induced in female Balb/c mice (6-8 week-old) as previously described with a commercially obtained cocktail of 5 monoclonal antibodies to type II collagen at 2 mg/mouse (Chondrex, Inc. Redmond, WA) followed by LPS (50 μg/mouse) with or without BT2 (3 or 30 mg/kg mouse) in DMSO vehicle was administered i.p. on Day 3. Hind footpad thickness was measured on Day 9 using digital calipers. Mice were sacrificed on Day 14 and microCT scanning of hind limbs was performed.
Immmunohistochemical staining of hind limbs for VCAM-1 and ICAM-1 and analysis. Formalin-fixed, paraffin embedded of hind limbs were sectioned (5 μm). Dako EnVision Rabbit Kit (cat. K4011, Dako) was used for immmunohistochemical staining for VCAM-1 and ICAM-1. […] Integrated optical density (IOD) of positive staining in ankle joint (tibia and talus) articular cartilage was assessed for VCAM-1 and ICAM-1 using Image-Pro Plus software (Cybernetics, Bethesda, MD, USA). Area (μm^2) of ankle joint articular cartilage was measured using Image-Pro Plus software. Total cell number and positive staining cell number in ankle joint articular cartilage were counted manually using Image-Pro Plus software. […]

[2] = test system: Brown Norway pigmented rats; experiment: Rat choroidal laser injury model, fluorescein leakage; assay type: in vivo; conditions: 192 μg IVT, Days 0 and 7, HRA score Days 14 and 21
From the text: (§1) Rat choroidal laser injury model. Male Brown Norway pigmented rats (8-14 week-old) were anesthetized by an intramuscular injection of Rompun® (xylazine)/Imalgene® (ketamine). Pupils were dilated by instillation of one drop of 0.5% tropicamide before laser burn. Six burns were created in both eyes on Day 0 by applying 170 mW of 532 nm laser light (Viridis laser, Quantel, France) on 75 μm spots around the optic nerve, between the main retinal vessel branches, for 0.1s, through the slit lamp and contact lens. Production of a bubble at the time of laser application confirmed the rupture of Bruch's membrane. Compounds in vehicle (saline containing 0.01% DMSO and 0.5% Tween 80, sonicated) in 2-5 μl were injected IVT on Days 0 and 7 under an operating microscope using a 30G needle mounted on a 100 μl Hamilton syringe. Kenacort was administered IVT into each eye on Day 0. Alternatively, aflibercept/Eylea in vehicle (saline) was injected IVT 6 times (Days 0, 3, 7, 10, 14, 17). […] After anaesthesia, 10% sodium fluorescein (250 μl/100 g body weight) was injected subcutaneously, and ocular fluorescence was recorded 10 min after dye injection. Fluorescein leakage was evaluated on Days 14 and 21 in the angiograms by two examiners masked to the study groups and graded for fluorescein intensity as follows: score 0: no leakage; 1: slightly stained; 2: moderately stained; 3: strongly stained.

[3] = test system: VEGF-A165; experiment: Immunohistochemical staining of rat retina, VEGF-A165; assay type: in vivo
From the text: as §1, with “membrane.” for “membrane. Compounds in vehicle (saline containing 0.01% DMSO and 0.5% Tween 80, sonicated) in 2-5 μl were injected IVT on Days 0 and 7 under an operating microscope using a 30G needle mounted on a 100 μl Hamilton syringe. Kenacort was administered IVT into each eye on Day 0. Alternatively, aflibercept/Eylea in vehicle (saline) was injected IVT 6 times (Days 0, 3, 7, 10, 14, 17).”
Immunohistochemical staining of rat retina. […] IOD of positive staining (red chromogen) was assessed for CD31, VEGF-A165, pERK, FosB and VCAM-1 using Image-Pro Plus software (Cybernetics, Bethesda, MD). IOD in IPL and INL was quantified for CD31; OPL to OS for VEGF-A165; INL to ONL for pERK; GCL to OS for FosB; OLM for VCAM-1, using Image-Pro Plus. […]

SMILES: CCOC(=O)Nc1ccc2c(c1)C(=O)N(CC)c1ccccc1O2 [BT2, (10-ethyl-11-oxo-10,11-dihydro-dibenzo[b,f][1,4]oxazepin-2-yl)-carbamic acid ethyl ester]
- VCAM-1 expression in bone [1]: inhibit VCAM-1 and ICAM-1 expression
- reduction of retinal permeability (fluorescein leakage) [2]: ~50%
- inducible expression of VEGF-A165 in retina ([3]; lasered rat eyes 21 days after injury): inhibited the inducible expression of VEGF-A165
- VEGF-A165 staining gradient relative to the wound ([3]; lasered rat eyes, 100 μm boxed increments): inhibited by BT2
